Reference: patent US10208089B2, “Modulation of complement activity” (priority 2014, dated 2019)
“Also recorded” adds a separate entry of the source. Read-outs that look alike come from different tables or passages of the source. Starred links: 1 amine or outer side, 2 acyl side, 3 side chain; linkers in the order of their positions; H or OH if unused. Positions of bridges follow the written chain, without caps; N, C: chain ends. Non-standard residues stand in square brackets, D forms with d. Residues, ends and D or L forms follow the SMILES beside them. Trp(7-aza) = N[C@@H](Cc1c[nH]c2ncccc12)C(=O)O; mXylylene = c1cc(C[*:1])cc(C[*:2])c1; pXylylene = c1cc(C[*:2])ccc1C[*:1]; dPhg = N[C@@H](C(=O)O)c1ccccc1; Chg = N[C@H](C(=O)O)C1CCCCC1; Phg = N[C@H](C(=O)O)c1ccccc1; Tle = CC(C)(C)[C@H](N)C(=O)O; NMeS = CN[C@@H](CO)C(=O)O; Nva = CCC[C@H](N)C(=O)O

Key:
C5 [1] = molecular target: T1, C5 (Homo sapiens, UniProt P01031); test: Human hemolysis assay (RBC lysis assay using complete human sera); format: cell-based; set-up: with complete human sera (Complement Technology, Tyler Tex.) and polypeptides; tissue Complement Technology, Tyler Tex; host or cells: complete human serum
C5 [2] = molecular target: T1, C5; test: Competitive fluorescence polarization assay with probe R3076; format: binding; set-up: purchased Complement Technology, Tyler, Tex
Method: FP allows binding events to be measured in a homogenous solution.
Polarization was measured over time, until binding reached equilibrium. KD was determined using Graphpad Prism (using “Saturating Binding Curves, One Site—Specific Binding With Hill Slope” as the curve fit to determine KD).
10 μl of this working stock was then added to each well in the assay plate. The assay plate was incubated at room temperature, protected from light, for 20 minutes to allow binding to reach equilibrium.
Test articles listed in Table 7 were subsequently diluted in DMSO then assay buffer, comprising 10 2-fold dilutions and were then added to the assay plate in triplicate, rapidly. The assay plate was then incubated in the Paradigm (Molecular Devices, Sunnyvale, Calif.) plate reader for 60 minutes at 25° C.
After incubation for 60 minutes, the plate was read using the Paradigm FP protocol (Molecular Devices, Sunnyvale, Calif.) and raw polarization values were imported into Graphpad Prism.

[3] = inhibition of lysis of antibody-sensitized sheep erythrocytes, complete human sera
[4] = average of Exp 1 and Exp 2, read-out: Avg, nM IC50
[5] = average of Exp 1 and Exp 2, read-out: Avg, nM Ki
[6] = competition with probe R3076 25 nM, C5 50 nM, 60 min at 25° C., experiment 1, read-out: IC50 nM, Exp 1
[7] = competition with probe R3076 25 nM, C5 50 nM, 60 min at 25° C., experiment 1, read-out: Ki nM, Exp 1
[8] = competition with probe R3076 25 nM, C5 50 nM, 60 min at 25° C., experiment 2, read-out: IC50 nM, Exp 2
[9] = competition with probe R3076 25 nM, C5 50 nM, 60 min at 25° C., experiment 2, read-out: Ki nM, Exp 2

T1 sequence (P01031 19-1676): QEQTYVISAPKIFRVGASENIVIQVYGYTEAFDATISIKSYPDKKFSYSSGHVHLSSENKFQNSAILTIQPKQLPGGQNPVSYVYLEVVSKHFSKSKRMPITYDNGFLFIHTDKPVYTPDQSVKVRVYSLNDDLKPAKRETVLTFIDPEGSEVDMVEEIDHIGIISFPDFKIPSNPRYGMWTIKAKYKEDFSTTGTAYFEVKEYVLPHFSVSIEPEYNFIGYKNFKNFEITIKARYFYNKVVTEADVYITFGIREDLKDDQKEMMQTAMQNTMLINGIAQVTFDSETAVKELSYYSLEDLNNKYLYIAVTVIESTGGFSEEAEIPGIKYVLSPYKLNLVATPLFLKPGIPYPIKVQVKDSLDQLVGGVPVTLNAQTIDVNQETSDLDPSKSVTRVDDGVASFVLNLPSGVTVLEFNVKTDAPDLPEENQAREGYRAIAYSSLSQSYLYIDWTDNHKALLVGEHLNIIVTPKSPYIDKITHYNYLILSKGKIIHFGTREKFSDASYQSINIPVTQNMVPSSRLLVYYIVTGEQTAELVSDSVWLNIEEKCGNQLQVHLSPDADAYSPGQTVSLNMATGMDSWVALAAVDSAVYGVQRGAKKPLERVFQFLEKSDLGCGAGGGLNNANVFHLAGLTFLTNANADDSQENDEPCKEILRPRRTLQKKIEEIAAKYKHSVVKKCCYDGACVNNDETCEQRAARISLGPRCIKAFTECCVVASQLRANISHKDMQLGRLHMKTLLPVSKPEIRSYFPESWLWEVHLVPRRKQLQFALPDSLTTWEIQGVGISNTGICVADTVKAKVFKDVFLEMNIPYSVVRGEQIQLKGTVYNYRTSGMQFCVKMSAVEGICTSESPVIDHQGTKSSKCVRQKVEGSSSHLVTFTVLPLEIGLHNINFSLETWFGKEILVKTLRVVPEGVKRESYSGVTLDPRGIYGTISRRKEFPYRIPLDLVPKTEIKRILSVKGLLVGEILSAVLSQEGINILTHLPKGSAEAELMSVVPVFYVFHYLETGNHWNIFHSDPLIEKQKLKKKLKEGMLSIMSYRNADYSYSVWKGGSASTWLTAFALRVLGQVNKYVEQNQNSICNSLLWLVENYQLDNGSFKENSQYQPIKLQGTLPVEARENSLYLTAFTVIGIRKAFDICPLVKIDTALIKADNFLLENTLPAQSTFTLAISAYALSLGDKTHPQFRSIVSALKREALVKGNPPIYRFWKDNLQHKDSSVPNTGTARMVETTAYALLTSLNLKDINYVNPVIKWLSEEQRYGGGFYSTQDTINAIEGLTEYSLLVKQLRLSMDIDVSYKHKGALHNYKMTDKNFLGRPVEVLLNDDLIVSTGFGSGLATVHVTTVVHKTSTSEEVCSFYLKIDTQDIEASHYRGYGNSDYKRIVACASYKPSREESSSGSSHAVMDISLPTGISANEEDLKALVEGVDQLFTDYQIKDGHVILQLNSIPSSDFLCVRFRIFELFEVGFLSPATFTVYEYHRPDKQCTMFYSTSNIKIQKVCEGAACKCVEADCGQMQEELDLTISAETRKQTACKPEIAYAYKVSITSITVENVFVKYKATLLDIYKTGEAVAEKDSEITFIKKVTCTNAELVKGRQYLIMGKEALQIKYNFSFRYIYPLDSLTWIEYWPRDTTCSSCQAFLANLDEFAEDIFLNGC

IC50 (C5 [2]; [4]) | Ki (C5 [2]; [5]) | IC50 (C5 [2]; [6]) | Ki (C5 [2]; [7]) | IC50 (C5 [2]; [8]) | Ki (C5 [2]; [9]) | competition with labeled probe / affinity for C5 (in words) (C5 [2]; probe R3076 25 nM, C5 50 nM) | Ki (C5 [2]; probe R3076 25 nM, C5 50 nM, read-out: Ki) | SMILES | IC50 (C5 [1]; [3]) | IC50 (C5 [1]; 7-azatryptophan variant polypeptides of R3002, inhibition of red blood cell lysis) | ability to inhibit red blood cell lysis compared with the parent polypeptide (in words) (C5 [1]; variants of R3021, R3002 or R3008)
4230 nM | 874 nM | 4330 nM | 866 nM | 4120 nM | 882 nM | weak affinity |  | CSCC[C@H](N)C(=O)N[C@H]1CSCc2cccc(c2)CSC[C@@H](C(=O)N[C@@H](CC(=O)O)C(=O)N[C@H](C(=O)N[C@@H](Cc2ccc(O)cc2)C(=O)N[C@@H](Cc2c[nH]c3ccccc23)C(=O)N[C@@H](CCC(=O)O)C(N)=O)C(C)C)NC(=O)[C@H](Cc2ccccc2)NC(=O)[C@H](CCCNC(=N)N)NC(=O)[C@H](CCC(=O)O)NC(=O)[C@H](C(C)C)NC1=O [Compound R3043, [mXylyl(2,7)]M-C-V-E-R-F-C-D-V-Y-W-E-NE2] (H-MCVERFCDVYWE-NH2; linker 2-7 via mXylylene) | 934 nM |  | 
6820 nM | 1490 nM | 6060 nM | 1400 nM | 7580 nM | 1590 nM | weak affinity |  | CCC[C@H](NC(=O)[C@@H]1CCCN1C(=O)[C@H](CCC)NC(=O)[C@@H]1CSCc2cccc(c2)CSC[C@H](NC(C)=O)C(=O)N[C@@H](c2ccccc2)C(=O)N[C@@H]([C@@H](C)O)C(=O)N[C@@H](Cc2c[nH]c3ncccc23)C(=O)N[C@@H](CCC(=O)O)C(=O)N[C@@H](Cc2ccc(O)cc2)C(=O)N(C)[C@@H](CO)C(=O)N[C@@H](Cc2c[nH]cn2)C(=O)N1)C(N)=O [Compound R3014, [mXylyl(1,9)]Ac-C-Phg-T-azaTrp-E-Y-(N-Me)S-H-C-Nvl-P-Nvl-NH2] (Ac-C[Phg]T[Trp(7-aza)]EY[NMeS]HC[Nva]P[Nva]-NH2; linker 1-9 via mXylylene) | 1420 nM |  | 
68.4 nM |  | 72.7 nM | 10.4 nM | 64.1 nM | 8.69 nM | most potent | 9.54 nM | CCC[C@H](NC(C)=O)C(=O)N[C@@H](CS)C(=O)N[C@@H](Cc1ccc(O)cc1)C(=O)N[C@@H](CCC(=O)O)C(=O)N[C@@H](CC(N)=O)C(=O)N[C@H](C(=O)N[C@@H](Cc1ccc(O)cc1)C(=O)N[C@@H](Cc1c[nH]c2ncccc12)C(=O)N[C@@H](CCC(=O)O)C(=O)N[C@@H](Cc1ccc(O)cc1)C(=O)N1CCC[C@H]1C(=O)N[C@H](C(=O)N1CCC[C@H]1C(N)=O)c1ccccc1)C(C)(C)C [Compound R3003, Ac-Nvl-C-Y-E-N-Tbg-Y-azaTrp-E-Y-P-Phg-P-NH2] (Ac-[Nva]CYEN[Tle]Y[Trp(7-aza)]EYP[Phg]P-NH2) | 13.9 nM |  | 
278 nM | 80 nM | 295 nM | 73.2 nM | 261 nM | 86.9 nM | relatively strong affinity |  | CCC[C@H](NC(C)=O)C(=O)N[C@H]1CSCc2cccc(c2)CSC[C@@H](C(=O)N[C@@H](CCC)C(=O)N2CCC[C@H]2C(N)=O)NC(=O)[C@H](Cc2c[nH]cn2)NC(=O)[C@H](CO)N(C)C(=O)[C@H](Cc2ccc(O)cc2)NC(=O)[C@H](CCC(=O)O)NC(=O)[C@H](Cc2c[nH]c3ncccc23)NC(=O)[C@H]([C@@H](C)O)NC(=O)[C@H](c2ccccc2)NC1=O [Compound R3011, [mXylyl(2,10)]Ac-Nvl-C-Phg-T-azaTrp-E-Y-(N-Me)S-H-C-Nvl-P-NH2] (Ac-[Nva]C[Phg]T[Trp(7-aza)]EY[NMeS]HC[Nva]P-NH2; linker 2-10 via mXylylene) | 112 nM |  | 
 |  |  |  |  |  |  |  | CCC[C@H](NC(=O)[C@@H](NC(=O)[C@@H]1CCCN1C(=O)[C@H](Cc1ccc(O)cc1)NC(=O)[C@H](CCC(=O)O)NC(=O)[C@H](Cc1c[nH]c2ccc(OC)cc12)NC(=O)[C@H](Cc1ccc(O)cc1)NC(=O)[C@@H](NC(=O)[C@H](CC(N)=O)NC(=O)[C@H](CCC(=O)O)NC(=O)[C@H](Cc1ccc(O)cc1)NC(C)=O)C(C)(C)C)c1ccccc1)C(N)=O [Compound R3094, Ac-Y-E-N-Tbg-Y-(5-MeO)W-E-Y-P-Phg-Nvl-NH2] | > 100000 nM | > 100000 nM | 
 |  |  |  |  |  |  |  | CC(=O)N[C@H]1CSCc2cccc(c2)CSC[C@@H](C(=O)N[C@@H](CC(=O)O)C(=O)N[C@H](C(=O)N[C@@H](Cc2ccc(O)cc2)C(=O)N[C@@H](Cc2c[nH]c3ccccc23)C(=O)N[C@@H](CCC(=O)O)C(=O)N[C@@H](Cc2ccccc2)C(N)=O)C(C)C)NC(=O)[C@H](Cc2ccccc2)NC(=O)[C@H](CCCNC(=N)N)NC(=O)[C@H](CCC(=O)O)NC(=O)[C@H](C(C)C)NC1=O [Compound R3048, [mXylyl(1,6)]Ac-C-V-E-R-F-C-D-V-Y-W-E-F-NH2] (Ac-CVERFCDVYWEF-NH2; linker 1-6 via mXylylene) | 19.3 nM |  | increased the ability
 |  |  |  |  |  |  |  | CCC[C@H](NC(=O)[C@@H]1CSCc2ccc(cc2)CSC[C@H](NC(=O)[C@H](CCC)NC(C)=O)C(=O)N[C@@H](C2CCCCC2)C(=O)N[C@@H]([C@@H](C)O)C(=O)N[C@@H](Cc2c[nH]c3ncccc23)C(=O)N[C@@H](CCC(=O)O)C(=O)N[C@@H](Cc2ccc(O)cc2)C(=O)N(C)[C@@H](CO)C(=O)N[C@@H](Cc2c[nH]cn2)C(=O)N1)C(N)=O [Compound R3058, [pXylyl(2,10)]Ac-Nvl-C-Chg-T-azaTrp-E-Y-(N-Me)S-H-C-Nvl-NH2] (Ac-[Nva]C[Chg]T[Trp(7-aza)]EY[NMeS]HC[Nva]-NH2; linker 2-10 via pXylylene) | > 10000 nM |  | 
 |  |  |  |  |  |  |  | CCC[C@H](NC(=O)[C@H](NC(=O)[C@@H]1CCCN1C(=O)[C@H](Cc1ccc(O)cc1)NC(=O)[C@H](CCC(=O)O)NC(=O)[C@H](Cc1c[nH]c2ncccc12)NC(=O)[C@H](Cc1ccc(O)cc1)NC(=O)[C@@H](NC(=O)[C@H](CC(=O)O)NC(=O)[C@@H]1CSCc2cccc(c2)CSC[C@H](NC(C)=O)C(=O)N[C@@H](C(C)C)C(=O)N[C@@H](CCC(=O)O)C(=O)N[C@@H](C)C(=O)N[C@@H](Cc2ccccc2)C(=O)N1)C(C)(C)C)c1ccccc1)C(N)=O [Compound R3154, [mXylyl(1,6)]Ac-C-V-E-A-F-C-D-Tbg-Y-azaTrp-E-Y-P-(D-Phg)-Nvl-NH2] (Ac-CVEAFCD[Tle]Y[Trp(7-aza)]EYP[dPhg][Nva]-NH2; linker 1-6 via mXylylene) | 592 nM |  | 

SMILES | IC50 (C5 [2]; [4]) | Ki (C5 [2]; [5]) | IC50 (C5 [2]; [6]) | Ki (C5 [2]; [7]) | IC50 (C5 [2]; [8]) | Ki (C5 [2]; [9]) | competition with labeled probe / affinity for C5 (in words) (C5 [2]; probe R3076 25 nM, C5 50 nM) | Ki (C5 [2]; probe R3076 25 nM, C5 50 nM, read-out: Ki) | IC50 (C5 [1]; [3]) | IC50 (C5 [1]; 7-azatryptophan variant polypeptides of R3002, inhibition of red blood cell lysis) | ability to inhibit red blood cell lysis compared with the parent polypeptide (in words) (C5 [1]; variants of R3021, R3002 or R3008)
CCC[C@H](NC(=O)[C@H](Cc1ccc(O)cc1)NC(=O)[C@H](CC(N)=O)NC(=O)[C@H](CCC)NC(=O)[C@H](CCC(=O)O)NC(=O)[C@@H](NC(=O)[C@H](Cc1c[nH]c2ncccc12)NC(=O)[C@@H](NC(=O)[C@H](CS)NC(=O)[C@H](Cc1ccc(O)cc1)NC(=O)[C@@H]1CCCN1C(=O)[C@H](Cc1ccc(O)cc1)NC(C)=O)c1ccccc1)C(C)(C)C)C(=O)N[C@@H](CCC(=O)O)C(N)=O [Compound R3023, Ac-Y-P-Y-C-Phg-azaTrp-Tbg-E-Nvl-N-Y-Nvl-E-NH2] (Ac-YPYC[Phg][Trp(7-aza)][Tle]E[Nva]NY[Nva]E-NH2) | > 1000 nM | > 1000 nM | > 1000 nM | > 1000 nM | > 1000 nM | > 1000 nM | no activity at the highest concentration tested; also recorded: not detected at the highest concentration tested; also recorded: no affinity |  | > 100000 nM |  | 
